Tested on: CCL-1 and HGF cells
Assay: Western blot for autophagy proteins Atg5, Atg7, LC3A/B
Assay type: cell-based
Details: 24 h; erufosine 30 µM, HirDM90 IC50
Method: For Western blot, CCL-1 and HGF cell lines were chosen, and they were seeded in either 6-well plates or 55 mm Petri dishes suitable for cell culture. They were treated with an exposure time of 24 h in an incubator (Panasonic MCO-18AC, Panasonic Healthcare Ltd., […], Japan). […] Hans-Jörg Eibl. In addition, a higher concentration of an […] added to one of the tests for comparison. The samples were trypsinized, collected, washed with PBS (TS1101, HiMedia, Mumbai, India), centrifuged, and frozen at -80 °C if storage was necessary. Then they were lysed on ice with a buffer containing 100 mM Tris-HCl (648313, Sigma-Aldrich, St. Louis, MO, USA) at pH 8.0, 4% sodium dodecyl sulfate (SDS, […], Sigma-Aldrich), 20% glycerol (49779, Sigma-Aldrich), 1% Na3VO4 (450243, Sigma-Aldrich), 200 mM dithiothreitol (DTT, 3483-12-3, Sigma-Aldrich, Burlington, MA, USA) supplemented with protease inhibitor (05892970001, Roche). The cell lysate was heated to boiling for 15 min, then centrifuged at 13,000 rpm for 10 min at 4 °C. Lysates were subjected to denaturing SDS polyacrylamide gel electrophoresis on acrylamide 4-20% gradient Mini-PROTEAN® TGXTM Stain-Free gels (4568094, Bio-Rad Laboratories, Hercules, CA, USA). […] Densitometric calculation and analysis was performed with Quantity One software version 4.6.9 (Bio-Rad Laboratories).

CCCCCCCC/C=C\CCCCCCCCCCCCOP(=O)([O-])OCC[N+](C)(C)C [erufosine]
Conversion of LC3A/B to the lower migrating form: converted to the lower migrating form visibly
